Source: US7034056B2, “Aryl and biaryl compounds having MCH modulatory activity” (Pharmacopeia Drug Discovery, inc., priority 2001, dated 2006)

What follows are compounds tested against T1, hMCHR (MCH receptor) (Homo sapiens, UniProt Q99705) (assay: MCH Assay PCOP Protocol ([125I]-MCH SPA binding to hMCHR-CHO membranes)). Conditions: [125I]-MCH binding to hMCHR-CHO membranes; class symbols for ranges of Ki; read-out: Activity (Ki range).
T1 construct: (or internally produced); host or cells: CHO (Chinese hamster ovary) cells, membrane preparation
T1 sequence (Q99705 whole entry): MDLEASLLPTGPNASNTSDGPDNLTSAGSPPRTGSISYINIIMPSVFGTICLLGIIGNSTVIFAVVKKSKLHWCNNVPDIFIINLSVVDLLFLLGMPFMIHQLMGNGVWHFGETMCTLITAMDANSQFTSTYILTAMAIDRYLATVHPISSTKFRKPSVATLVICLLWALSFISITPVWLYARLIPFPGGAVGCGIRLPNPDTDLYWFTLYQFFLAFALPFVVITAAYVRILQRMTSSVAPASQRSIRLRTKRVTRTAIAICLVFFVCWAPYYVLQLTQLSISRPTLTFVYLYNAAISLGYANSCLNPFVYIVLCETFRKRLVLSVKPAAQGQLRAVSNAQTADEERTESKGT
Outline: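 SPA binding with 10 μg hMCHR-CHO membranes and WGA-SPA beads in 25 mM HEPES pH 7.4, 10 mM NaCl, 10 mM MgCl2, 5 mM MnCl2, 0.1% BSA.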
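Further: A 0.4–50 nM B 51–500 nM C 501–2500 nM.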

| SMILES | Ki [nM] |
| --- | --- |
| CN(C)C1CCN(CCC(CNC(=O)Nc2cccc(C(F)(F)F)c2)c2ccc(Cl)c(Cl)c2)C1 (stereo not drawn) [Example 306] | 501 to 2500 |
| O=C(NCC(CCN1CCNCC1)c1ccc(Cl)c(Cl)c1)Nc1ccc(Cl)c(Cl)c1 (stereo not drawn) [Example 307] | 501 to 2500 |
| O=C(NCC(CCN1CCNCC1)c1ccc(Cl)c(Cl)c1)Nc1cc(Cl)cc(Cl)c1 (stereo not drawn) [Example 308] | 501 to 2500 |
| O=C(NCC(CCN1CCNCC1)c1ccc(Cl)c(Cl)c1)Nc1cccc(C(F)(F)F)c1 (stereo not drawn) [Example 309] | 501 to 2500 |
| CN(C)CCCNCCC(CNC(=O)Nc1cccc(C(F)(F)F)c1)c1ccc(Cl)c(Cl)c1 (stereo not drawn) [Example 310] | 501 to 2500 |
| O=C(NCC(CCN1CCC(N2CCCCC2)CC1)c1ccc(Cl)c(Cl)c1)Nc1cccc(Br)c1 (stereo not drawn) [Example 312] | 51 to 500 |
| O=C(NCC(CCNC1CCC1)c1ccc(Cl)c(Cl)c1)Nc1cc(C(F)(F)F)cc(C(F)(F)F)c1 (stereo not drawn) [Example 314] | 51 to 500 |
| O=C(NCC(CCN1CCC(N2CCCCC2)CC1)c1ccc(Cl)c(Cl)c1)Nc1ccc([N+](=O)O)cc1 (stereo not drawn) [Example 315] | 51 to 500 |
| CCNC(=O)NC1CCN(CCC(CNC(=O)Nc2cc(Cl)cc(Cl)c2)c2ccc(Cl)c(Cl)c2)C1 (stereo not drawn) [Example 316] | 501 to 2500 |
| O=C(NCC(CCN1CCC(N2CCCCC2)CC1)c1ccc(Cl)c(Cl)c1)Nc1cccc([N+](=O)[O-])c1 (stereo not drawn) [Example 317] | 501 to 2500 |
| O=C(NCC(CCNC1CCNC1)c1ccc(Cl)c(Cl)c1)Nc1cc(C(F)(F)F)cc(C(F)(F)F)c1 (stereo not drawn) [Example 318] | 501 to 2500 |
| O=C(NCC(CCNCc1ccc2c(c1)OCO2)c1ccc(Cl)c(Cl)c1)Nc1cc(C(F)(F)F)cc(C(F)(F)F)c1 (stereo not drawn) [Example 319] | 501 to 2500 |
| O=C(NCC(CCNCCc1c[nH]c2ccccc12)c1ccc(Cl)c(Cl)c1)Nc1cc(C(F)(F)F)cc(C(F)(F)F)c1 (stereo not drawn) [Example 320] | 501 to 2500 |
| CCNC(=O)NC1CCN(CCC(CNC(=O)Nc2cc(Cl)cc(Cl)c2)c2ccc(Cl)cc2)C1 (stereo not drawn) [Example 321] | 501 to 2500 |
| NC1CCN(CCC(CNC(=O)Nc2cc(Cl)cc(Cl)c2)c2ccc(Cl)c(Cl)c2)CC1 (stereo not drawn) [Example 322] | 501 to 2500 |
| CCNC(=O)NC1CCN(CCC(CNC(=O)Nc2cc(Cl)cc(Cl)c2)c2ccc(Cl)c(Cl)c2)CC1 (stereo not drawn) [Example 323] | 501 to 2500 |
| Cc1ccc(C(CCN2CCC(N)CC2)CNC(=O)Nc2cc(Cl)cc(Cl)c2)cc1 (stereo not drawn) [Example 324] | 501 to 2500 |
| O=C(NCC(CCN1CCC(N2CCCCC2)CC1)c1ccc(Cl)c(Cl)c1)Nc1ccc(Cl)cc1 (stereo not drawn) [Example 325] | 501 to 2500 |
| O=C(NCC(CCN1CCC(N2CCCCC2)CC1)c1ccc(Cl)c(Cl)c1)Nc1ccc(Br)cc1 (stereo not drawn) [Example 326] | 501 to 2500 |
| CCNC(=O)NC1CCN(CCC(CNC(=O)Nc2cc(Cl)cc(Cl)c2)c2ccc(C)cc2)CC1 (stereo not drawn) [Example 327] | 501 to 2500 |
| O=C(NCC(CCNC1CCCC1)c1ccc(Cl)c(Cl)c1)Nc1cc(C(F)(F)F)cc(C(F)(F)F)c1 (stereo not drawn) [Example 328] | 0.4 to 50 |
| O=C(NCC(CCN1CCCC1)c1ccc(Cl)cc1)Nc1cc(C(F)(F)F)cc(C(F)(F)F)c1 (stereo not drawn) [Example 329] | 51 to 500 |
| O=C(NCC(CCNCCc1c[nH]c2ccccc12)c1ccc(Cl)cc1)Nc1cc(C(F)(F)F)cc(C(F)(F)F)c1 (stereo not drawn) [Example 330] | 51 to 500 |
| COc1ccc(C(CCNCCc2c[nH]c3ccccc23)CNC(=O)Nc2cc(C(F)(F)F)cc(C(F)(F)F)c2)cc1 (stereo not drawn) [Example 331] | 51 to 500 |
| CN(C)CCNCCC(CNC(=O)Nc1cc(C(F)(F)F)cc(C(F)(F)F)c1)c1ccc(Cl)c(Cl)c1 (stereo not drawn) [Example 332] | 51 to 500 |
| O=C(NCC(CCNCCc1c[nH]c2ccccc12)c1cccc(Cl)c1)Nc1cc(C(F)(F)F)cc(C(F)(F)F)c1 (stereo not drawn) [Example 333] | 51 to 500 |
| O=C(NCC(CCN1CCCC1)c1cccc(Cl)c1)Nc1cc(C(F)(F)F)cc(C(F)(F)F)c1 (stereo not drawn) [Example 334] | 501 to 2500 |

| SMILES | Ki [nM] |
| --- | --- |
| COc1ccc(C(CCN2CCCC2)CNC(=O)Nc2cc(C(F)(F)F)cc(C(F)(F)F)c2)cc1 (stereo not drawn) [Example 335] | 501 to 2500 |
| Cc1cccc(C(CCNCCc2c[nH]c3ccccc23)CNC(=O)Nc2cc(C(F)(F)F)cc(C(F)(F)F)c2)c1 (stereo not drawn) [Example 336] | 501 to 2500 |
| CN(C)CCCNCCC(CNC(=O)Nc1cc(C(F)(F)F)cc(C(F)(F)F)c1)c1ccc(Cl)cc1 (stereo not drawn) [Example 337] | 501 to 2500 |
| Cc1cccc(C(CCN2CCCC2)CNC(=O)Nc2cc(C(F)(F)F)cc(C(F)(F)F)c2)c1 (stereo not drawn) [Example 338] | 501 to 2500 |
| O=S(=O)(NCC(CCNCCc1c[nH]c2ccccc12)c1cccc(F)c1)c1ccc(Cl)c(Cl)c1 (stereo not drawn) [Example 339] | 501 to 2500 |
| O=S(=O)(NCC(CCNCCc1c[nH]c2ccccc12)c1cccc(Cl)c1)c1ccc(Cl)c(Cl)c1 (stereo not drawn) [Example 340] | 501 to 2500 |
| O=C(NCC(CCN1CCCC1)c1cccc(F)c1)Nc1cc(C(F)(F)F)cc(C(F)(F)F)c1 (stereo not drawn) [Example 341] | 501 to 2500 |
| O=S(=O)(NCC(CCNCCc1c[nH]c2ccccc12)c1ccc(Cl)cc1)c1ccc(Cl)c(Cl)c1 (stereo not drawn) [Example 342] | 501 to 2500 |
| O=C(NCC(CCNCCc1c[nH]c2ccccc12)c1cccc(F)c1)Nc1cc(C(F)(F)F)cc(C(F)(F)F)c1 (stereo not drawn) [Example 343] | 501 to 2500 |
| CN(C)CCCNCCC(CNC(=O)Nc1cc(C(F)(F)F)cc(C(F)(F)F)c1)c1cccc(Cl)c1 (stereo not drawn) [Example 344] | 501 to 2500 |
| COc1ccc(C(CCNCCCN(C)C)CNC(=O)Nc2cc(C(F)(F)F)cc(C(F)(F)F)c2)cc1 (stereo not drawn) [Example 345] | 501 to 2500 |
| CN(C)CCCNCCC(CNC(=O)Nc1cc(C(F)(F)F)cc(C(F)(F)F)c1)c1cccc(F)c1 (stereo not drawn) [Example 346] | 501 to 2500 |
| Cc1cccc(C(CCNCCCN(C)C)CNC(=O)Nc2cc(C(F)(F)F)cc(C(F)(F)F)c2)c1 (stereo not drawn) [Example 347] | 501 to 2500 |
| O=S(=O)(NCC(CCN1CCC(c2ccccc2)CC1)c1ccc(Cl)c(Cl)c1)c1ccc(Cl)c(Cl)c1 (stereo not drawn) [Example 348] | 501 to 2500 |
| O=S(=O)(NCC(CCN1CCCC1)c1cccc(Cl)c1)c1ccc(Cl)c(Cl)c1 (stereo not drawn) [Example 349] | 501 to 2500 |
| Cc1ccc(C(CCN2CCCCC2)CNC(=O)Nc2cc(Cl)cc(Cl)c2)cc1 (stereo not drawn) [Example 350] | 51 to 500 |
| Cc1ccc(C(CCN2CCC(N3CCCCC3)CC2)CNC(=O)Nc2cc(Cl)cc(Cl)c2)cc1 (stereo not drawn) [Example 351] | 51 to 500 |
| Cc1ccc(C(CCN2CCCCC2)CNC(=O)Nc2ccc(Cl)c(Cl)c2)cc1 (stereo not drawn) [Example 352] | 51 to 500 |
| Cc1ccc(C(CCN2CCCCC2)CNC(=O)Nc2cc(Cl)ccc2Cl)cc1 (stereo not drawn) [Example 353] | 51 to 500 |
| COc1cc(NC(=O)NCC(CCN2CCCCC2)c2ccc(C)cc2)cc(OC)c1 (stereo not drawn) [Example 354] | 501 to 2500 |
| Cc1ccc(C(CCN2CCCCC2)CNC(=O)Nc2cc(C)cc(C)c2)cc1 (stereo not drawn) [Example 355] | 501 to 2500 |
| O=C(NCC(CCN1CCC(N2CCCCC2)CC1)c1ccc(Cl)c(Cl)c1)Nc1ccc(F)c([N+](=O)[O-])c1 (stereo not drawn) [Example 356] | 51 to 500 |
| O=C(NCC(CCN1CCC(N2CCCCC2)CC1)c1ccc(Cl)c(Cl)c1)Nc1cccc(Cl)c1Cl (stereo not drawn) [Example 358] | 501 to 2500 |
| O=C(NCC(CCN1CCC(N2CCCCC2)CC1)c1ccc(Cl)c(Cl)c1)Nc1ccc(Br)cc1Br (stereo not drawn) [Example 359] | 501 to 2500 |
| O=C(NCC(CCN1CCC(N2CCCCC2)CC1)c1ccc(Cl)c(Cl)c1)Nc1cc(Cl)ccc1Cl (stereo not drawn) [Example 360] | 501 to 2500 |
| Cc1ccc(NC(=O)NCC(CCN2CCC(N3CCCCC3)CC2)c2ccc(Cl)c(Cl)c2)cc1F (stereo not drawn) [Example 361] | 501 to 2500 |
| O=C(NCC(CCN1CCC(N2CCCCC2)CC1)c1ccc(Cl)c(Cl)c1)Nc1ccc(OC(F)(F)F)cc1 (stereo not drawn) [Example 362] | 501 to 2500 |
